Where two headings read alike, the source gives them in different places.
Experiments:
SIK2 = target: T1, SIK2 (Homo sapiens, UniProt Q9H0K1); assay: biochemical; settings: 33P radioactive SIK kinase assay, AMARA peptide, 10 μM ATP
T1 construct: purchased ThermoFisher Scientific PV4792
In short: (§1)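 AMARA peptide phosphorylation by SIK1–3 is quantified through ^33P uptake from a labeled/unlabeled ATP blend. Staurosporine at 10 μM final defines full inhibition, 1% DMSO the uninhibited signal. Quench uses phosphoric acid; counting follows filter capture.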

SIK3 = target: T2, SIK3 (Homo sapiens, UniProt Q9Y2K2); assay: biochemical
T2 construct: purchased SignalChem S12-11G-100
In short: as §1

SIK1 = target: T3, SIK1 (Homo sapiens, UniProt P57059); assay: biochemical; settings: 33P radioactive SIK kinase assay, AMARA peptide, 10 μM ATP; read-out: SIK1 IC50
T3 construct: purchased Carna Biosciences 02-131
In short: as §1

[1] = tested on: LPS triggered IL-10 secretion in monocyte-derived macrophages (MdM); assay: MdM assay: LPS-triggered IL-10 (ELISA); format: cell-based, human; settings: maximal fold change vs LPS only, median across assays
Method: This assay evaluates illustrative compounds of the invention for their inhibition of LPS-induced TNFα and LPS triggered IL-10 secretion in monocyte-derived macrophages.
PBMCs are isolated from human blood samples (buffycoats). The buffy coat is aseptically transferred into a 50 mL Falcon tube, and diluted 1/2 in PBS. Falcon tubes are filled with 20 mL Lymphoprep™, on top of which 25 mL of the buffy coat is carefully added, tubes are centrifuged for 35 min at 400 g in temperature controlled centrifuge, without brake, at 25° C. PBMCs are aspirated from the white interface layer between sample and Lymphoprep™. PBMCs are washed five times in PBS.
PBMCs are centrifuged at 300×g for 10 min and resuspended at a density of 1.0E07 cells/80 μL Miltenyi buffer (PBS, pH 7.4, 1% FBS, 2 mM EDTA).
Starting from this point of the protocol all steps are performed on ice. 20 μL of CD14+ micro-beads are added per 1.0E07 cells, the tube is mixed and incubated for 15 min in the fridge at 4° C. Cell suspension volume is adjusted to total volume of 100 mL using Miltenyi buffer, mixed gently and subsequently centrifuged for 10 min at 300× g. Supernantant is discarded and cell pellet is resuspended in 12 mL of Miltenyi buffer.
Four LS columns are placed in the MACS Separator (magnet) from Miltenyi Biotec, and are prewet by rinsing with 3 mL of MACS buffer per column. Three mL of cell suspension is added onto the column (max 1*10^8 of labelled cells/column), and columns are subsequently washed 3 times with 3 mL of Miltenyi buffer.
The columns are removed from the magnets, and 5 mL of Miltenyi buffer are added to the column to flush out the CD14+ fraction by pushing the plunger into the column. The flushed fractions are collected in a fresh 50 mL Falcon and volume is adjusted to 30 mL using Miltenyi buffer, cells are centrifuged for 10 min at 300× g. The obtained cell pellet is resuspended in 10 mL RPMI w/o FBS, and cell density is determined using a hematologic analyser (Sysmex XS-500i).
On day 10, MdMs are triggered and compound is added.
A compound dilution plate is made in 100% DMSO by 3-fold dilution of 10 mM stock solution. An intermediate dilution plate (10× final concentration) is made by diluting the compound dilution plate 50-fold in RPMI medium.
Medium is carefully removed from cell plates using multichannel pipette, and replaced by 80 μL fresh medium. 10 μL of the 10× final concentration compound is added to the cells and incubated for 1 hour at 37° C. before addition of trigger. No trigger conditions/trigger conditions are spiked with equal final DMSO concentrations of 0.2% DMSO. 10 μL of 10×LPS (final conc. 200 ng/mL) solution are added to all wells except for the ‘no trigger wells’ where 10 μL medium is added. Supernatant is collected after 2 h (IL-10 determination) and after 20 h (TNFα determination) of LPS triggering.
Plates are washed three times with PBST, where after 100 μL of Strep-HRP conjugate (0.5 μg/mL final concentration diluted in dilution buffer) is added. Plates are incubated in the dark, at 37° C. for 30 min. Plates are washed three times with PBST. […] 100 μL of substrate solution is added to each well and incubated until brilliant blue color develops. The reaction is stopped by adding 50 μL of 1 M H2SO4, after which absorbance is measured at 450 nm on the SpectraMax i3, Molecular Devices.
To quantify these inductions fold changes (FC) compared to ‘LPS only’ are calculated for each concentration tested and the maximal FC is calculated (IL-10 FCmax):
[formula] wherein ABS=Absorbance measured at 450 nm.
The median maximal FC for test compounds across two or more assays is reported (IL-10FCmax median).

[2] = tested on: LPS-induced TNFα secretion in monocyte-derived macrophages (MdM); assay: MdM assay: LPS-triggered TNFα (ELISA); format: cell-based, human; settings: LPS-triggered TNFα inhibition
In short: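 Human CD14+ monocytes isolated from buffy-coat PBMCs by magnetic beads, differentiated to macrophages; on day 10 compound preincubated 1 h at 37 °C, then LPS 200 ng/mL added (0.2% DMSO). Supernatant taken after 20 h; TNFα quantified by sandwich ELISA against standard curve.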

T1 sequence (Q9H0K1 whole entry): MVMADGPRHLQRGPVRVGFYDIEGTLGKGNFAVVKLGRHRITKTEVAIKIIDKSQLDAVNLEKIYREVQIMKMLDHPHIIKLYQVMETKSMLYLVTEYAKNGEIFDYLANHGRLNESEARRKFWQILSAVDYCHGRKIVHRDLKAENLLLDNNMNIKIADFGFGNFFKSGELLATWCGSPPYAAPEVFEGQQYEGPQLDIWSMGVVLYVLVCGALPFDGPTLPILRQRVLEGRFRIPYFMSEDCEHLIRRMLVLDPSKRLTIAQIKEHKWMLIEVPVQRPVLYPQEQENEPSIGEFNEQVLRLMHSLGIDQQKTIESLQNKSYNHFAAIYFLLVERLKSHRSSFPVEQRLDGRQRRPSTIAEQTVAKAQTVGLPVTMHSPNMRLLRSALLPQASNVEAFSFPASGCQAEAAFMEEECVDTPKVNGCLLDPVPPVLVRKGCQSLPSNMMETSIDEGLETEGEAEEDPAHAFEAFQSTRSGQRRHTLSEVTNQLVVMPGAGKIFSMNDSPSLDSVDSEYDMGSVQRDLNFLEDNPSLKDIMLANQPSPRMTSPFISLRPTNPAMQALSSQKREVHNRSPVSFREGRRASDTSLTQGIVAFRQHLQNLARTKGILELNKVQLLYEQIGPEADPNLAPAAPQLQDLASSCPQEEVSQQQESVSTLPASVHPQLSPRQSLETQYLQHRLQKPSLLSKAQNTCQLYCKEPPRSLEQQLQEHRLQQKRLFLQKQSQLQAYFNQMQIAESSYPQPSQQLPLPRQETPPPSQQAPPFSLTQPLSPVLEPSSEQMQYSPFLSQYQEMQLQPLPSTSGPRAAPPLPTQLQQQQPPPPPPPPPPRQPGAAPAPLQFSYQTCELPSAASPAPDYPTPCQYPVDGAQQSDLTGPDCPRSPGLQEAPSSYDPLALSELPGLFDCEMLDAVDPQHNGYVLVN
T3 sequence (P57059 whole entry): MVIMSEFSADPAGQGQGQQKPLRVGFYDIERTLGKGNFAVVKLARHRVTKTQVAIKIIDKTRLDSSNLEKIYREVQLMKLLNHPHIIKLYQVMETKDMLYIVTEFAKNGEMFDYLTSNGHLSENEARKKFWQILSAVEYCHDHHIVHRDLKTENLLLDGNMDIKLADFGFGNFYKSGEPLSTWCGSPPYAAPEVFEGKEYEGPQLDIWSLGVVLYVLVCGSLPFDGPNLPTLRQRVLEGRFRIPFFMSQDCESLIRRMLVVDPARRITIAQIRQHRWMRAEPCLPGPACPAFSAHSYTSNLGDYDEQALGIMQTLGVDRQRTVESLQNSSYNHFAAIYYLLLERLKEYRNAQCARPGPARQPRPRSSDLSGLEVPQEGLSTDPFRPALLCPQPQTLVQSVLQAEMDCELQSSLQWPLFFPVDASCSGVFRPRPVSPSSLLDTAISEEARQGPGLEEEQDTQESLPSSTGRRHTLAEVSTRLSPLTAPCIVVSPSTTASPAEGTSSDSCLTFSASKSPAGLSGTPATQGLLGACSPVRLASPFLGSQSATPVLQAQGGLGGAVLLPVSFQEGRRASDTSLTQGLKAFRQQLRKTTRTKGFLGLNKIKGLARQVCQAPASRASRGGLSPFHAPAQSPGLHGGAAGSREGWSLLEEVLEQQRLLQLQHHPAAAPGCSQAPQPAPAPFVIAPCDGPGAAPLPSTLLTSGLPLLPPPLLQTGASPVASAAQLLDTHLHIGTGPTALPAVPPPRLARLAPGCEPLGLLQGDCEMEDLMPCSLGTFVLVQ
T2 sequence (Q9Y2K2 whole entry): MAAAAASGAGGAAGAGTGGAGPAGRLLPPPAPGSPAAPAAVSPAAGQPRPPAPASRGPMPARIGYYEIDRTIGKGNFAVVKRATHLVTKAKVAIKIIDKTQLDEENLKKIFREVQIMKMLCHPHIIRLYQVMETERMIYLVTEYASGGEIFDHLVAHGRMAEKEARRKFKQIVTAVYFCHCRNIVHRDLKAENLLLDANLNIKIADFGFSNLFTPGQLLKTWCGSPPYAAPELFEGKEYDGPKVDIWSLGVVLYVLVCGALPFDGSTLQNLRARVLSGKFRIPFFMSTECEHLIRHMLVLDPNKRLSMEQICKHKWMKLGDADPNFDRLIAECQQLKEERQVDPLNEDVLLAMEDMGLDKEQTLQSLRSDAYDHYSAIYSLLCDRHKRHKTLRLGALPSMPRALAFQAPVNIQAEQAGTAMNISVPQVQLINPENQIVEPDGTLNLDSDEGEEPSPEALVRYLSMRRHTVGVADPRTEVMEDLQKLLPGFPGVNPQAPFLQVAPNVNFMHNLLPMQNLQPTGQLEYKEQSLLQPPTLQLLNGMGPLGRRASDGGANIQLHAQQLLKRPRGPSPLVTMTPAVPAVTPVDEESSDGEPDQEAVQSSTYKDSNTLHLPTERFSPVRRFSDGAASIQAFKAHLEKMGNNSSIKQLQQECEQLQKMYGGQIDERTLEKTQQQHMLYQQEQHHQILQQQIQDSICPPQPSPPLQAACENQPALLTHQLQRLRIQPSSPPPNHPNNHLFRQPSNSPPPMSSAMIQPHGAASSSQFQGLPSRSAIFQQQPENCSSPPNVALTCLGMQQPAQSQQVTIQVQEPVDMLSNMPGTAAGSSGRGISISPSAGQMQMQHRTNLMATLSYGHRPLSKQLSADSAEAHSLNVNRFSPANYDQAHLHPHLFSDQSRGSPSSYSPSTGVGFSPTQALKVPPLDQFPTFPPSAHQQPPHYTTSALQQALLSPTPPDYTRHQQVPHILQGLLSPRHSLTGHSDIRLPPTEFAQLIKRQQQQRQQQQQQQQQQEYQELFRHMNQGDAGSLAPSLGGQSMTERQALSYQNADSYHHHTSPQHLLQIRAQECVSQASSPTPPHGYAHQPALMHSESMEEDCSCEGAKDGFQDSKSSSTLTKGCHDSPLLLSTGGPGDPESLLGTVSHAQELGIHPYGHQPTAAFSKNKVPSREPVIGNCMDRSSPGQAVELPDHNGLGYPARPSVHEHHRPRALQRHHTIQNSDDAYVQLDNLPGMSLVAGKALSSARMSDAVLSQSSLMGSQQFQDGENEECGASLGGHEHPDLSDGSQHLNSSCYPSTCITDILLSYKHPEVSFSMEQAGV

IC50 (SIK2) | IC50 (SIK3) | IC50 (SIK1) | EC50 ([2]; Homo sapiens, Macrophage) | Compound | IL-10 FCmax median [1] | IC50 (SIK3; 33P radioactive SIK kinase assay, AMARA peptide, 15 μM ATP) | EC50 [2]
0.01 to 10 nM | 0.01 to 10 nM | 0.01 to 10 nM | 0.1 to 100 nM | COc1cc(-n2cnc3cc(-c4cnn(C5CCN(C)CC5)c4)ccc32)cc(OC)c1C(=O)NCC(F)(F)F [Cpd 46, 2,6-dimethoxy-4-[5-[1-(1-methyl-4-piperidyl)pyrazol-4-yl]benzimidazol-1-yl]-N-(2,2,2-trifluoroethyl)benzamide] | ++ (>1.5-4.5) | – | –
10 to 100 nM | 10 to 100 nM | 10 to 100 nM | 100 to 1000 nM | COc1cc(-n2cnc3cc(-c4cnoc4)ccc32)cc(OC)c1C(=O)NCC(F)(F)F [Cpd 51, 4-(5-isoxazol-4-ylbenzimidazol-1-yl)-2,6-dimethoxy-N-(2,2,2-trifluoroethyl)benzamide] | ++ (>1.5-4.5) | – | –
– | – | – | 100 to 1000 nM | CCCNC(=O)c1c(OC)cc(-n2cnc3cc(-c4cnn(CC)c4)ccc32)cc1OC [compound 22, 4-[5-(1-ethylpyrazol-4-yl)benzimidazol-1-yl]-2,6-dimethoxy-N-propyl-benzamide] | ++ (>1.5-4.5) | – | –
0.01 to 10 nM | 0.01 to 10 nM | 10 to 100 nM | 0.1 to 100 nM | COc1cc(-c2cnc3cc(-c4cc(C)no4)ccn23)cc(OC)c1C(=O)NCC(F)(F)F [compound 232, 2,6-dimethoxy-4-[7-(3-methylisoxazol-5-yl)imidazo[1,2-a]pyridin-3-yl]-N-(2,2,2-trifluoroethyl)benzamide] | – | – | –
0.01 to 10 nM | 0.01 to 10 nM | 0.01 to 10 nM | 0.1 to 100 nM | COc1cc(-c2cnc3cc(-c4cnn(CC(=O)OC5CC5)c4)ccn23)cc(OC)c1C(=O)NCC(F)(F)F [compound 234, cyclopropyl 2-[4-[3-[3,5-dimethoxy-4-(2,2,2-trifluoroethyl-carbamoyl)phenyl]imidazo[1,2-a]pyridin-7-yl]pyrazol-1-yl]acelate] | – | – | –
100 to 500 nM | 10 to 100 nM | 100 to 500 nM | 100 to 1000 nM | COc1ncc(-c2ccn3c(-c4cc(OC)c(C(=O)NCC(F)(F)F)c(OC)c4)cnc3c2)cn1 [compound 241, 2,6-dimethoxy-4-[7-(2-methoxypyrimidin-5-yl)imidazo[1,2-a]pyridin-3-yl]-N-(2,2,2-trifluoroethyl)benzamide] | – | – | –
100 to 500 nM | 10 to 100 nM | 100 to 500 nM | 1000 to 5000 nM | COc1cc(-c2cnc3cc(-c4cncnc4)ccn23)cc(OC)c1C(=O)NCC(F)(F)F [compound 242, 2,6-dimethoxy-4-(7-pyrimidin-5-ylimidazo[1,2-a]pyridin-3-yl)-N-(2,2,2-trifluoroethyl)benzamide] | – | – | –
0.01 to 10 nM | 0.01 to 10 nM | 0.01 to 10 nM | 0.1 to 100 nM | COc1cc(-c2cnc3cc(-c4cnn(C(C)C(=O)OC(C)(C)C)c4)ccn23)cc(OC)c1C(=O)NCC(F)(F)F (stereo not drawn) [compound 243, tert-butyl 2-[4-[3-[3,5-dimethoxy-4-(2,2,2-trifluoroethyl-carbamoyl)phenyl]imidazol[1,2-a]pyridin-7-yl]pyrazol-1-yl]propanoate] | – | – | –
0.01 to 10 nM | 0.01 to 10 nM | 0.01 to 10 nM | 0.1 to 100 nM | COc1cc(-c2cnc3cc(-c4ccc(N5CCOCC5)nc4)ccn23)cc(OC)c1C(=O)NCC(F)(F)F [compound 251, 2,6-dimethoxy-4-[7-(6-morpholino-3-pyridyl)imidazo[1,2-a]pyridin-3-yl]-N-(2,2,2-trifluoroethyl)benzamide] | – | – | –

The next lines start with the molecule.

Compound | IC50 (SIK2) | IC50 (SIK3) | IC50 (SIK1) | EC50 ([2]; Homo sapiens, Macrophage) | IL-10 FCmax median [1] | IC50 (SIK3; 33P radioactive SIK kinase assay, AMARA peptide, 15 μM ATP) | EC50 [2]
CCn1cc(-c2cnc3c(c2)ncn3-c2cc(OC)c(C(=O)NCC(F)(F)F)c(OC)c2)cn1 [Cpd 29, 4-[6-(1-ethylpyrazol-4-yl)imidazo[4,5-b]pyridin-3-yl]-2,6-dimethoxy-N-(2,2,2-trifluoroethyl)benzamide] | 10 to 100 nM | 10 to 100 nM | 10 to 100 nM | 100 to 1000 nM | ++ (>1.5-4.5) | – | –
COc1cc(-n2cnc3cc(-c4cnn(C)c4)ccc32)cc(OC(F)F)c1C(=O)NC1CC1 [Cpd 53, N-cyclopropyl-2-(difluoromethoxy)-6-methoxy-4-[5-(1-methylpyrazol-4-yl)benzimidazol-1-yl]benzamide] | – | – | – | – | ++ (>1.5-4.5) | – | –
COc1cc(-c2cnc3cc(-c4cnn(C)c4)ccn23)cc(NCCO)c1C(=O)NCC(F)(F)F [compound 205, 2-(2-hydroxyethylamino)-6-methoxy-4-[7-(1-methylpyrazol-4-yl)imidazo[1,2-a]pyridin-3-y 1]-N-(2,2,2-trifluoroethyl)benzamide] | 0.01 to 10 nM | 0.01 to 10 nM | 10 to 100 nM | 0.1 to 100 nM | – | – | –
COc1cc(-c2cnc3cc(-c4cnn(C)c4)ccn23)cc(OC)c1C(=O)N1CC(C)(C)C1 [compound 208, [2,6-dimethoxy-4-[7-(1-methylpyrazol-4-yl)imidazo[1,2-a]pyridin-3-yl]phenyl]-(3,3-dimethylazetidin-1-yl)methanone] | 0.01 to 10 nM | 0.01 to 10 nM | 0.01 to 10 nM | 100 to 1000 nM | – | – | –
COc1cc(-c2cnc3cc(-c4cnn(C)c4)ccn23)cc(OC)c1C(=O)N1CCC(C#N)C1 (stereo not drawn) [compound 210, 1-[2,6-dimethoxy-4-[7-(1-methylpyrazol-4-yl)imidazo[1,2-a]pyridin-3-yl]benzoyl]pyrrolidine-3-carbonitrile] | 10 to 100 nM | 0.01 to 10 nM | 10 to 100 nM | 100 to 1000 nM | – | – | –
C#CC1(O)CN(C(=O)c2c(OC)cc(-n3cnc4cc(-c5cnn(C)c5)ccc43)cc2OC)C1 [compound 221, [2,6-dimethoxy-4-[5-(1-methylpyrazol-4-yl)benzimidazol-1-yl]phenvl]-(3-ethynyl-3-hydroxy-azetidin-1-yl)methanone] | 10 to 100 nM | 10 to 100 nM | 10 to 100 nM | 100 to 1000 nM | – | – | –
COC(=O)C(C)n1cc(-c2ccn3c(-c4cc(OC)c(C(=O)NCC(F)(F)F)c(OC)c4)cnc3c2)cn1 (stereo not drawn) [compound 244, methyl 2-[4-[3-[3,5-diinethoxy-4-(2,2,2-trifluoroethyl-carbamoyl)phenyl]imidazo[1,2-a]pyridin-7-yl]pyrazol-1-yl]propanoate] | 0.01 to 10 nM | – | 0.01 to 10 nM | – | – | 0.01 to 10 nM | 0.1 to 100 nM
CCOc1cncc(-c2ccn3c(-c4cc(OC)c(C(=O)NCC(F)(F)F)c(OC)c4)cnc3c2)c1 [compound 248, 4-[7-(5-ethoxy-3-pyridyl)imidazo[1,2-a]pyridin-3-yl]-2,6-dimethoxy-N-(2,2,2-trifluoroethyl)benzamide] | 0.01 to 10 nM | 0.01 to 10 nM | 10 to 100 nM | 0.1 to 100 nM | – | – | –
